# In patent US9856290B2, “Glycopeptide compositions and uses thereof” (SUSSEX RESEARCH LABORATORIES INC., priority 2013, dated 2018):
# Marks after values point to notes of the source that are not given here. Primed or numbered codes have the meaning given here. The star is where a group is joined. Ac3‑α‑GalNAc = per-acetylated α-N-acetylgalactosamine (O-glycoside), CC(=O)N[C@@H]1[C@@H](OC(C)=O)[C@@H](OC(C)=O)[C@@H](COC(C)=O)O[C@@H]1*; Ac3‑α‑GalNAc″ = peracetylated alpha-N-acetylgalactosamine, CC(=O)N[C@@H]1[C@@H](OC(C)=O)[C@@H](OC(C)=O)[C@@H](COC(C)=O)O[C@@H]1*; Ac3‑β‑GlcNAc = per-acetylated β-N-acetylglucosamine, CC(=O)N[C@@H]1[C@@H](OC(C)=O)[C@H](OC(C)=O)[C@@H](COC(C)=O)O[C@H]1*; Ac4‑β‑Glc = per-acetylated β-glucose (tetraacetyl), CC(=O)OC[C@H]1O[C@@H](*)[C@H](OC(C)=O)[C@@H](OC(C)=O)[C@@H]1OC(C)=O; Ac4‑α‑Man = per-acetylated α-mannose, CC(=O)OC[C@H]1O[C@H](*)[C@@H](OC(C)=O)[C@@H](OC(C)=O)[C@@H]1OC(C)=O; αGalNAc = CC(=O)N[C@@H]1[C@@H](O)[C@@H](O)[C@@H](CO)O[C@@H]1*; βGlcNAc = CC(=O)N[C@@H]1[C@@H](O)[C@H](O)[C@@H](CO)O[C@H]1*; αMan = OC[C@H]1O[C@H](*)[C@@H](O)[C@@H](O)[C@@H]1O; βGlc = OC[C@H]1O[C@@H](*)[C@H](O)[C@@H](O)[C@@H]1O; Palmitoyl = CCCCCCCCCCCCCCCC(=O)*
# Key:
# [1] = tested on: Human Dermal Fibroblasts (KMST-6); test: ECM ELISA assay: elastin secretion by human dermal fibroblasts; assay type: cell-based; conditions: 5 μM; for Elastin Secretion at 48 hours: KMST-6, 48 hours; for Elastin Secretion at 48 hours / Elastin Secretion at 72 hours: % compared to control set at 100%, normalized to total protein
# Experimental: (§1) KMST-6 cells (Japan Health Sciences Foundation, JCRB0433) were seeded at 7,000 cells/ml in 12-well tissue culture treated plates (Falcon, 353043) in complete media. The complete media consisted of the following: MEM/EBSS (Hyclone, SH30024.01), 10% Heat-Inactivated FBS (Gibco, 10082-147), 1% L-Glutamine (Hyclone, SH30031.01), 1% Nucleosides (800 mg/L Adenosine, 850 mg/L Guanidine, 730 mg/L Cytidine, 730 mg/L Uridine and 240 mg/L Thymidine), 1% Penicillin/Streptomycin (HyClone, SV30010), 1% Sodium Pyruvate (HyClone, SH30239.01), 1% Non-Essential Amino Acids (Hyclone, SH30238.01) and 0.04% Gentamicin (Gibco, 15710-064). Cells were grown for 2 days prior to treatments. The media was aspirated and cells were washed with 1×PBS (Fisher, SH30256.01) and treated with 5 μM (1 mL/well) glycopeptides, reference (Pal-KTTKS, CPC Scientific, 822197), and control (DMSO, Fisher, BP231-100) in serum-free media supplemented with 50 μg/mL Sodium Ascorbate (Sigma, A4034) and 80 μg/mL β-Aminopropionate Fumarate (Sigma, A3134). The treated cells were incubated at 37° C. and 5% CO2 for 48 and 72 hours. At each timepoint, media from each treatment was collected and centrifuged at 1500 RPM for 15 minutes at 4° C. The supernatant was collected and stored at −80° C. for extracellular matrix protein quantification. The following kits were used for quantification of ECM proteins: Fibronectin (Takara, MK115) and Elastin (Uscn Life Science Inc., E91337Hu). The cells were harvest and lysed with 250 μL Lysis Buffer (20 mM Tris-HCl (Sigma, T1503), 137 mM NaCl (Sigma, S9888), 2 mM EDTA (Fisher, BP118), 1% IGEPAL (Sigma, 18896), 10% Glycerol (Sigma, G5516), 100 μM PMSF (Fisher, 36978) and 10 μg/mL Leupeptin (Sigma-Aldrich, L2884). They were placed on a container of ice on a plate shaker (Lab-Line Instruments, 3595) for 30 minutes. The lysate was centrifuged at 10,000 g for 5 minutes at 4° C. The supernatant was collected and used for protein quantification (BioRad, 500-0112).
# (§2) To determine effects on extracellular matrix protein secretion, 5 μM of individual glycopeptides were incubated with Human Dermal Fibroblasts (KMST-6). The control sample cells were treated with DMSO (Fisher, BP231-100). As described previously, supernatant was collected from treated cells (at two time-points, 48 and 72 hours of treatment) and stored at −80° C. for subsequent extracellular matrix protein quantification using ELISA kits (Fibronectin (Takara, MK115), Elastin (Uscn Life Science Inc., E91337Hu). For the determination of total cellular protein, treated cells were harvested and lysed. The lysate was centrifuged, the supernatant was collected and then used for protein quantification (BioRad, 500-0112). ELISA plates were read on the plate reader (Molecular Devices) at absorbance of 450 nm and SoftMax Pro software was used to compute the μg/ml values of protein of interest derived from the generated 4-parameter fit standard curve. Each μg/ml of protein secreted was normalized to total protein per well. The data was analysed by averaging out normalized values from at least three independent experiments and presenting them as a % compared to control treatment set at 100% (Table 2-5). Statistical significance was performed using One-way ANOVA (p<0.05) where “*” represents statistical significance when compared to control and “#” represents statistical significance when compared to reference. […]
# [2] = tested on: Human Dermal Fibroblasts (KMST-6); test: ECM ELISA assay: fibronectin secretion by human dermal fibroblasts; assay type: cell-based; conditions: 5 μM; for Fibronectin secretion at 48 hours: KMST-6, 48 hours; for Fibronectin secretion at 48 hours / Fibronectin Secretion at 72 hours: % compared to control set at 100%, normalized to total protein
# Experimental: as §1, §2
Substance,Elastin Secretion at 48 hours [1],"Elastin Secretion at 72 hours ([1]; KMST-6, 72 hours)",Fibronectin secretion at 48 hours [2],"Fibronectin Secretion at 72 hours ([2]; KMST-6, 72 hours)",biological activity in elastin secretion compared to control ([1]; 72 hours),"ELASTIN (ECM Protein Summary Table) ([1]; KMST-6, 72 hours, control 100%)",biological activity in fibronectin secretion compared to control ([2]; 72 hours),"FIBRONECTIN (ECM Protein Summary Table) ([2]; KMST-6, 72 hours, control 100%)"
Pal-KS(β-Glc)TKS-OH (Palmitoyl-KS(βGlc)TKS-OH; SMILES CCCCCCCCCCCCCCCC(=O)N[C@@H](CCCCN)C(=O)N[C@@H](CO[C@@H]1O[C@H](CO)[C@@H](O)[C@H](O)[C@H]1O)C(=O)N[C@H](C(=O)N[C@@H](CCCCN)C(=O)N[C@@H](CO)C(=O)O)[C@@H](C)O; listed as Homo sapiens) [GP003-4],136.8%,120.8%,165.8* %,132.5%,–,–,–,–
Pal-KT(Ac3-α-GalNAc)-T(Ac3-α-GalNAc)KS-OH (Palmitoyl-KT(Ac3‑α‑GalNAc″)T(Ac3‑α‑GalNAc″)KS-OH; SMILES CCCCCCCCCCCCCCCC(=O)N[C@@H](CCCCN)C(=O)N[C@H](C(=O)N[C@H](C(=O)N[C@@H](CCCCN)C(=O)N[C@@H](CO)C(=O)O)[C@@H](C)O[C@H]1O[C@H](COC(C)=O)[C@H](OC(C)=O)[C@H](OC(C)=O)[C@H]1NC(C)=O)[C@@H](C)O[C@H]1O[C@H](COC(C)=O)[C@H](OC(C)=O)[C@H](OC(C)=O)[C@H]1NC(C)=O; listed as Homo sapiens) [GP001-13],123.8%,131.3%,114.0%,94.50%,–,–,–,–
Pal-KT(Ac3-α-GalNAc)TKS-OH (Palmitoyl-KT(Ac3‑α‑GalNAc)TKS-OH; SMILES CCCCCCCCCCCCCCCC(=O)N[C@@H](CCCCN)C(=O)N[C@H](C(=O)N[C@H](C(=O)N[C@@H](CCCCN)C(=O)N[C@@H](CO)C(=O)O)[C@@H](C)O)[C@@H](C)O[C@H]1O[C@H](COC(C)=O)[C@H](OC(C)=O)[C@H](OC(C)=O)[C@H]1NC(C)=O; listed as Homo sapiens) [GP001-3],123.3%,132.5%,163.8* %,117.4%,–,–,–,–
Pal-KT(Ac3-β-GlcNAc)TKS-OH (Palmitoyl-KT(Ac3‑β‑GlcNAc)TKS-OH; SMILES CCCCCCCCCCCCCCCC(=O)N[C@@H](CCCCN)C(=O)N[C@H](C(=O)N[C@H](C(=O)N[C@@H](CCCCN)C(=O)N[C@@H](CO)C(=O)O)[C@@H](C)O)[C@@H](C)O[C@@H]1O[C@H](COC(C)=O)[C@@H](OC(C)=O)[C@H](OC(C)=O)[C@H]1NC(C)=O; listed as Homo sapiens) [GP001-5],81.67%,90.00%,125.0%,105.0%,–,–,–,–
Pal-KT(Ac4-α-Man)TKS-OH (Palmitoyl-KT(Ac4‑α‑Man)TKS-OH; SMILES CCCCCCCCCCCCCCCC(=O)N[C@@H](CCCCN)C(=O)N[C@H](C(=O)N[C@H](C(=O)N[C@@H](CCCCN)C(=O)N[C@@H](CO)C(=O)O)[C@@H](C)O)[C@@H](C)O[C@H]1O[C@H](COC(C)=O)[C@@H](OC(C)=O)[C@H](OC(C)=O)[C@@H]1OC(C)=O; listed as Homo sapiens) [GP003-1],464.1* %,413.6* %,193.7* %,125.3%,–,–,–,–
Pal-KT(Ac4-β-Glc)TKS-OH (Palmitoyl-KT(Ac4‑β‑Glc)TKS-OH; SMILES CCCCCCCCCCCCCCCC(=O)N[C@@H](CCCCN)C(=O)N[C@H](C(=O)N[C@H](C(=O)N[C@@H](CCCCN)C(=O)N[C@@H](CO)C(=O)O)[C@@H](C)O)[C@@H](C)O[C@@H]1O[C@H](COC(C)=O)[C@@H](OC(C)=O)[C@H](OC(C)=O)[C@H]1OC(C)=O; listed as Homo sapiens) [GP001-1],205.3%,188.0%,159.3* %,121.5%,greater biological activity,188%,greater biological activity,122%
Pal-KT(α-GalNAc)-T(α-GalNAc)KS-OH (Palmitoyl-KT(αGalNAc)T(αGalNAc)KS-OH; SMILES CCCCCCCCCCCCCCCC(=O)N[C@@H](CCCCN)C(=O)N[C@H](C(=O)N[C@H](C(=O)N[C@@H](CCCCN)C(=O)N[C@@H](CO)C(=O)O)[C@@H](C)O[C@H]1O[C@H](CO)[C@H](O)[C@H](O)[C@H]1NC(C)=O)[C@@H](C)O[C@H]1O[C@H](CO)[C@H](O)[C@H](O)[C@H]1NC(C)=O; listed as Homo sapiens) [GP001-14],88.00%,98.25%,104.8%,94.75%,–,–,–,–
Pal-KT(α-GalNAc)TKS-OH (Palmitoyl-KT(αGalNAc)TKS-OH; SMILES CCCCCCCCCCCCCCCC(=O)N[C@@H](CCCCN)C(=O)N[C@H](C(=O)N[C@H](C(=O)N[C@@H](CCCCN)C(=O)N[C@@H](CO)C(=O)O)[C@@H](C)O)[C@@H](C)O[C@H]1O[C@H](CO)[C@H](O)[C@H](O)[C@H]1NC(C)=O; listed as Homo sapiens) [GP001-4],104.5%,100.0%,134.2%,112.5%,–,–,–,–
Pal-KT(α-Man)TKS-OH (Palmitoyl-KT(αMan)TKS-OH; SMILES CCCCCCCCCCCCCCCC(=O)N[C@@H](CCCCN)C(=O)N[C@H](C(=O)N[C@H](C(=O)N[C@@H](CCCCN)C(=O)N[C@@H](CO)C(=O)O)[C@@H](C)O)[C@@H](C)O[C@H]1O[C@H](CO)[C@@H](O)[C@H](O)[C@@H]1O; listed as Homo sapiens) [GP003-2],121.0%,160.4%,165.0* %,110.3%,–,–,–,–
Pal-KT(β-Glc)TKS-OH (Palmitoyl-KT(βGlc)TKS-OH; SMILES CCCCCCCCCCCCCCCC(=O)N[C@@H](CCCCN)C(=O)N[C@H](C(=O)N[C@H](C(=O)N[C@@H](CCCCN)C(=O)N[C@@H](CO)C(=O)O)[C@@H](C)O)[C@@H](C)O[C@@H]1O[C@H](CO)[C@@H](O)[C@H](O)[C@H]1O; listed as Homo sapiens) [GP001-2],102.8%,94.50%,133.0%,115.4%,–,–,–,–
Pal-KT(β-GlcNAc)TKS-OH (Palmitoyl-KT(βGlcNAc)TKS-OH; SMILES CCCCCCCCCCCCCCCC(=O)N[C@@H](CCCCN)C(=O)N[C@H](C(=O)N[C@H](C(=O)N[C@@H](CCCCN)C(=O)N[C@@H](CO)C(=O)O)[C@@H](C)O)[C@@H](C)O[C@@H]1O[C@H](CO)[C@@H](O)[C@H](O)[C@H]1NC(C)=O; listed as Homo sapiens) [GP001-6],91.00%,81.50%,123.2%,100.0%,–,–,–,–
Pal-KTT(Ac3-α-GalNAc)KS-OH (Palmitoyl-KTT(Ac3‑α‑GalNAc)KS-OH; SMILES CCCCCCCCCCCCCCCC(=O)N[C@@H](CCCCN)C(=O)N[C@H](C(=O)N[C@H](C(=O)N[C@@H](CCCCN)C(=O)N[C@@H](CO)C(=O)O)[C@@H](C)O[C@H]1O[C@H](COC(C)=O)[C@H](OC(C)=O)[C@H](OC(C)=O)[C@H]1NC(C)=O)[C@@H](C)O; listed as Homo sapiens) [GP001-9],103.7%,104.3%,123.4%,104.8%,–,–,–,–
